Common to all, as to type: in vivo
In data set [1] the test system is P388 mouse leukemia cells. Briefly: Survival of mice with intraperitoneal P388 leukemia, equivalent-ILS doses (Example 4). To be noted: CDF1 mice, P388 i.p.; single i.p. dose day 1; Compound A 25 mg/kg alone, ADM 1.5 mg/kg alone, Compound A 5 + ADM 0.3 mg/kg. How it is done: P388 mouse leukemia cells (1×10^6 cells) were transplanted intraperitoneally per mouse (day 0). One drug or two drugs were intraperitoneally administered on the next day (day 1). […] The ratio of increased life span (ILS %) was determined in the same manner as in Example 2.

Data set [2] concerns P388 mouse leukemia cells. Briefly: Survival of mice with intraperitoneal P388 leukemia, combined use (Example 2). To be noted: CDF1 mice, P388 i.p., single i.p. dose day 1, Compound A 75, CDDP 1.67, ADM 1.5, VP-16 7.5 mg/kg; for Number of days survived (average ± standard deviation): complete remission counted as 60 days; for Increased life span (ILS %): versus control. How it is done:
P388 mouse leukemia cells (1×10^6 cells) were transplanted intraperitoneally per mouse (day 0). One drug or two drugs were intraperitoneally administered on the next day (day 1). […] The ratio of increased life span (ILS %) was determined according to the following equation: ILS %=((the number of survived days for the group treated with drug)/(the number of survived days for the control group without drug)−1)×100
The combination index (CI) showing combination effect was determined by the following equation in accordance with the method by Uchida et al. (Uchida et al., Gan to Kagaku Ryouhou (Cancer and Chemotherapy), 25, 75-78 (1998)) based on the ILS % obtained from the treatment using one drug and the ILS % obtained from the combined treatment. CI=ILS % of the combined treatment/(ILS % with J-107088 (Compound A) alone+ILS % with another drug)
CI>1: synergistic effect, CI=1: additive effect, CI<1: antagonistic effect

Data set [3] is described as follows: Toxicity of equivalent-ILS doses given intraperitoneally for 5 consecutive days (Example 4). To be noted: ADM 1.5 mg/kg alone, Compound A 5 + ADM 0.3 mg/kg. How it is done: This dose was intraperitoneally administered to mice once a day for consecutive 5 days. Thereafter, whether the animal was alive or dead was observed, and the effect of lowering toxicity was judged. As the toxicity index, the changes in the body weight between that before the administration and that on the subsequent day after the administration were recorded.

`COc1cccc2c1C(=O)c1c(O)c3c(c(O)c1C2=O)C[C@@](O)(C(=O)CO)C[C@@H]3O[C@H]1C[C@H](N)[C@H](O)[C@H](C)O1` [ADM, adriamycin (doxorubicin)]: the “Ratio of increased life span (ILS %)” value in data set [1] is reported as 92%. In addition, in data set [2], the “Number of days survived (average ± standard deviation)” value is reported as 19.0 ± 1.9 days and the “Increased life span (ILS %)” value is 65%. In addition, in data set [3] (before administration versus day after administration, i.p. once a day for 5 days), the “Change in body weight (g)” value is reported as “+0.1 g”. The “Number of dead animals/number of animals per group” value in data set [3] (i.p. once a day for 5 consecutive days, Compound A 25 mg/kg alone) was 0/4.
Consider `COc1cc([C@@H]2c3cc4c(cc3[C@@H](O[C@@H]3O[C@@H]5CO[C@@H](C)O[C@H]5[C@H](O)[C@H]3O)[C@H]3COC(=O)[C@H]23)OCO4)cc(OC)c1O` [VP-16, etoposide], for which, in data set [2], the “Number of days survived (average ± standard deviation)” value is recorded as 17.4 ± 4.1 days and the “Increased life span (ILS %)” value is 51%.
Taken in the same sequence, the figures for `[NH2][Pt]([NH2])([Cl])[Cl]` [CDDP, cisplatin] were 25.4 ± 19.6 days and 121%.

The values are drawn from patent US20050171036A1, “Use of antitumor indolopyrrolocarbazole derivative and other anticancer agent in combination” (priority 2002, published 2005).
